From article PMC5033714 (Neuron, 2016)

What was measured:
[1] = molecular target: GluN1-CC/2A receptors (GluN1-N499C+Q686C) (Rattus norvegicus, UniProt P35439+Q00959, N499C/Q686C); type: cell-based; conditions: 100 μM glutamate alone; glycine 300 μM, 7CKA 10 μM, TCN-201 5 μM, MPX-004 10 μM, MPX-007 30 μM
[2] = Solubility-limited maximal concentration in recording solution; type: physicochemical; conditions: extracellular recording solution pH 7.4, DMSO < 0.3%
GluN1/2B-D receptors = type: cell-based
GluN1/2A receptors = GluN1/2A receptors (Rattus norvegicus, UniProt P35439+Q00959); type: cell-based; conditions: for increase of IC50 in 30 μM glycine compared to 3 μM glycine: 100 μM glutamate; for extent of inhibition of GluN1/2A / IC50: activated by 100 μM glutamate plus 3 μM glycine; for IC50: read-out: IC50 for inhibition of GluN1/2A
Sequence of GluN1/2A receptors (Q00959 20-1464 limits assumed, other chains not shown): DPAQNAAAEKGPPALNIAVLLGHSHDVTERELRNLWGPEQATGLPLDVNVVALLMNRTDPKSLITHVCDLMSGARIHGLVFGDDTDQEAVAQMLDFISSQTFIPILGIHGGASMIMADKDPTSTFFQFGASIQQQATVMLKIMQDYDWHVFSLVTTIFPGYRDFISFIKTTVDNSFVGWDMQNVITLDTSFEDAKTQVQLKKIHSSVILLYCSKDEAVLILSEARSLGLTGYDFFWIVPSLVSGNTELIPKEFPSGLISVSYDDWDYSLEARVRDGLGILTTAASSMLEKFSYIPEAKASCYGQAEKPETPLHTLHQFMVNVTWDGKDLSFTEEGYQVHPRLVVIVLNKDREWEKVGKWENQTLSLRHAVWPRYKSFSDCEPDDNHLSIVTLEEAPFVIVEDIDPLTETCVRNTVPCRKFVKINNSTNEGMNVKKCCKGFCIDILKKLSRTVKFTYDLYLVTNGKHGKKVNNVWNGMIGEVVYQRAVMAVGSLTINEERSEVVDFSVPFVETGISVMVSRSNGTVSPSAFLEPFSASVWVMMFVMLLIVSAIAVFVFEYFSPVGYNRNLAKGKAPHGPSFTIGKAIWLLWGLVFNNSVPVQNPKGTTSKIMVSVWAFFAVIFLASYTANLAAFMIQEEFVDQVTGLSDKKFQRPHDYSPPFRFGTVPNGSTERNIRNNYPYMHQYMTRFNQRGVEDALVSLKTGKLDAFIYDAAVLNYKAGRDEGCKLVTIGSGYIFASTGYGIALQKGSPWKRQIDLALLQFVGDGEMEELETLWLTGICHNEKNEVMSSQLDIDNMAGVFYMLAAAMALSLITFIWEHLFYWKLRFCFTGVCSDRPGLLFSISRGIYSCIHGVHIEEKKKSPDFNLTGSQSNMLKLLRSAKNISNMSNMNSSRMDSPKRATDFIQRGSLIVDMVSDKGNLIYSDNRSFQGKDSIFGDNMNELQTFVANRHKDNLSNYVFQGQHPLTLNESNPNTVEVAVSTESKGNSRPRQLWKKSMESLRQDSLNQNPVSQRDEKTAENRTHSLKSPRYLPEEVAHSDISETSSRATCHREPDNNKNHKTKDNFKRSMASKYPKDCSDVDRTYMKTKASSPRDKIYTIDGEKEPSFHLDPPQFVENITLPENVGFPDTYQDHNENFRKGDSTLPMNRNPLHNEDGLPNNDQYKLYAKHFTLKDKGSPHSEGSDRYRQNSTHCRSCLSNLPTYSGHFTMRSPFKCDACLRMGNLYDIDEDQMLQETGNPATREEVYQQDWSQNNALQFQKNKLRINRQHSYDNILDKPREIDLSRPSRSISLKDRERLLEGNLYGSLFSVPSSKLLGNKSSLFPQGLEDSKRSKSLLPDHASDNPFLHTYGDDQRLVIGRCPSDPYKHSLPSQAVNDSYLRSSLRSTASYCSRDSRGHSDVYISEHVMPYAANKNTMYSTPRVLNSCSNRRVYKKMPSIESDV

GluN1/2B receptors = GluN1/2B receptors (Rattus norvegicus, UniProt P35439+Q00960); type: cell-based
[3] = molecular target: GluN1/2A receptors with GluN1-Y535L (Rattus norvegicus, UniProt P35439+Q00959, Y535L); experiment: Schild analysis of TCN-201, GluN1-Y535L; type: cell-based
[4] = molecular target: GluN1/2A receptors with GluN1-R755A (Rattus norvegicus, UniProt P35439+Q00959, R755A); experiment: TCN-201 inhibition, GluN1-R755A; type: cell-based
[5] = molecular target: GluN1/2A receptors with GluN1-Y535F (Rattus norvegicus, UniProt P35439+Q00959, Y535F); experiment: Schild analysis of TCN-201, GluN1-Y535F; type: cell-based
[6] = molecular target: wild type GluN1/2A receptors (Rattus norvegicus, UniProt P35439+Q00959); type: cell-based
[7] = molecular target: GluN1/2A receptors with GluN2A-V783F (Rattus norvegicus, UniProt P35439+Q00959, V783F); experiment: Glycine concentration-response and Schild analysis, GluN2A-V783F; type: cell-based; conditions: read-out: binding affinity KB
[8] = molecular target: GluN1/2A receptors with GluN1-F754V (Rattus norvegicus, UniProt P35439+Q00959, F754V); experiment: Glycine concentration-response and Schild analysis, GluN1-F754V; type: cell-based
Sequence of GluN1/2A receptors with GluN1-F754V (Q00959 20-1464 limits assumed, other chains not shown): as above

[9] = molecular target: GluN1/2A receptors with GluN2A-V783A (Rattus norvegicus, UniProt P35439+Q00959, V783A); experiment: Glycine concentration-response and Schild analysis, GluN2A-V783A; type: cell-based
[10] = molecular target: GluN1/2A receptors with GluN1-F754L (Rattus norvegicus, UniProt P35439+Q00959, F754L); experiment: Glycine concentration-response and Schild analysis, GluN1-F754L; type: cell-based

Sequence of GluN1-CC/2A receptors (GluN1-N499C+Q686C) (Q00959 20-1464 limits assumed, other chains not shown): as above

O=C(O)c1cc(O)c2ccc(Cl)cc2n1 [7CKA]
effect on glutamate-activated responses from crosslinked GluN1-CC/2A [1]: not sensitive

Cc1ncc(CNC(=O)c2cnc(CNS(=O)(=O)c3ccc(F)c(Cl)c3)cn2)s1 [MPX-004]
maximal concentration used, limited by compound solubility [2]: 10 µM | selectivity for GluN1/2A over GluN1/2B-D (GluN1/2B-D receptors): strict selectivity | effect on glutamate-activated responses from crosslinked GluN1-CC/2A [1]: significant potentiation | increase of IC50 in 30 μM glycine compared to 3 μM glycine (GluN1/2A receptors; GluN1/2A): 3.8 fold | maximal inhibition (GluN1/2A receptors; GluN1/2A, 300 μM glycine): 71% ± 4% | extent of inhibition of GluN1/2A (GluN1/2A receptors): nearly complete inhibition | IC50 (GluN1/2A receptors): ~200 nM

Cc1ncc(CNC(=O)c2cnc(CNS(=O)(=O)c3ccc(F)c(F)c3)c(C)n2)s1 [MPX-007]
maximal concentration used, limited by compound solubility [2]: 30 µM | concentrations at which GluN1/2B-D receptors are inhibited (GluN1/2B-D receptors): 10 to 30 µM | increase of IC50 in 30 μM glycine compared to 3 μM glycine (GluN1/2A receptors; GluN1/2A): 3.2 fold | maximal inhibition (GluN1/2A receptors; GluN1/2A, 300 μM glycine): 95% ± 1% | extent of inhibition of GluN1/2A (GluN1/2A receptors): nearly complete inhibition | IC50 (GluN1/2A receptors): ~200 nM | glycine-sensitivity of inhibition of GluN1/2B (GluN1/2B receptors): sensitive to the glycine concentration | inhibition of GluN1/2B receptors (GluN1/2B receptors; 30 μM compound, 3 μM glycine, n = 6): 48% ± 3%

O=C(NNC(=O)c1ccc(CNS(=O)(=O)c2ccc(F)c(Cl)c2)cc1)c1ccccc1 [TCN-201]
maximal concentration used, limited by compound solubility [2]: 5 µM | selectivity for GluN1/2A over GluN1/2B-D (GluN1/2B-D receptors): strict selectivity | allosteric constant [3]: 0.016 | inhibition [4]: abolished | inhibition in 300 μM glycine (GluN1/2A receptors; GluN1/2A, 300 μM glycine): markedly diminished | extent of inhibition of GluN1/2A (GluN1/2A receptors): nearly complete inhibition | IC50 (GluN1/2A receptors): ~200 nM | allosteric constant compared to wild type [5]: virtually unchanged | binding affinity KB compared to wild type [5]: virtually unchanged | maximal increase of glycine EC50 (1/α) [6]: 143 fold | allosteric constant α ([6]; Schild analysis): 0.007 | Kb [7]: 186 nM | allosteric constant [8]: 0.086 | maximal increase of glycine EC50 (1/α) [8]: 12 fold | Kb ([8]; read-out: binding affinity KB): 131 nM | allosteric constant α [9]: 0.001 | allosteric constant [10]: 0.018 | binding affinity KB compared to wild type [10]: little to no change
